Structures can show the parent of a compound that is named as a salt.
What was measured:
bruxism patient [1] = experiment: Temporal muscle activity during sleep in bruxism patients, placebo or proton pump inhibitor (Experiment 2, double-blind); format: in vivo, human; conditions: 10 mg
Method: A catheter with a pH electrode was inserted into the test subject's esophagus 5 cm above the upper portion of the lower esophageal sphincter and pH was measured while the subject was asleep, while a disposable (bipolar) electrode was affixed to the skin at the front of the temporal muscle on one side. An amount of muscle activity during sleep was measured from 2.5 hours after falling asleep for a 40-minute period. At the same time, video and sound recordings were made that confirmed bruxism during sleep. […] In this Figure, when stable pH levels in the esophagus declined sharply, this was defined as an “decreased esophageal pH episode”. Measurement of temporal muscle activity during sleep in the bruxsim patient medicated with placebo or the proton pump inhibitor In a double-blind trial, test subjects were assigned to either medication with placebo or the proton pump inhibitor [sodium salt of rabeprazole (10 mg; brand name: […] (registered trademark), Eisai Co., Ltd.)] and, according to the method used in experiment 1, the amount of muscle activity during sleep in the front of the temporal muscle on one side was measured for a 4-hour period between 1 and 5 hours after falling asleep. Video and sound recordings were made at the same time that confirmed bruxism during sleep. […] A paired t test was used to test for significance, with P<0.05 defined as indicating a statistically significant difference.

bruxism patient [2] = experiment: Frequency of bruxism episodes during sleep in bruxism patients, placebo, PPI, H2RA or the combination (Experiment 3, double-blind); format: in vivo, human; conditions: FIG. 3; bruxism patients n=9; 10 mg of each drug; 4-hour period between 1 and 5 hours after falling asleep; vs placebo; paired t test, P<0.05 significant
Method: A catheter with a pH electrode was inserted into the test subject's esophagus 5 cm above the upper portion of the lower esophageal sphincter and pH was measured while the subject was asleep, while a disposable (bipolar) electrode was affixed to the skin at the front of the temporal muscle on one side. An amount of muscle activity during sleep was measured from 2.5 hours after falling asleep for a 40-minute period. At the same time, video and sound recordings were made that confirmed bruxism during sleep. […] In this Figure, when stable pH levels in the esophagus declined sharply, this was defined as an “decreased esophageal pH episode”. […] According to the methods used in experiment 1, the amount of muscle activity during sleep in the front of the temporal muscle on one side was measured for a 4-hour period between 1 and 5 hours after falling asleep. […]

COCCCOc1ccnc(C[S+]([O-])c2nc3ccccc3[nH]2)c1C (stereo not shown) [proton pump inhibitor, sodium salt of rabeprazole]
frequency of jaw motion accompanying rhythmical temporal muscle activity (bruxism episode) (bruxism patient [1]; FIG. 2(A), one bruxism patient, 4-hour period between 1 and 5 hours after falling asleep, compared to placebo): substantial decline | frequency of bruxism episodes per hour of sleep (bruxism patient [1]; FIG. 2(B), bruxism patients n=8, vs placebo, paired t test, ****P<0.0001): significantly reduces | duration of bruxism episodes per hour of sleep (bruxism patient [1]; FIG. 2(B), bruxism patients n=8, vs placebo, paired t test, ***P<0.001): significantly reduces | frequency of bruxism episodes per hour of sleep (bruxism patient [2]): significant reduction

Reference: US7608625B2, “Method for treating bruxism and bruxism-related diseases” (Eisai R & D Management Co., Ltd., priority 2003, dated 2009)
